Reference: patent publication US6875844B1, “Peptide compounds derived from a shifted ORF of the iCE gene” (Institut Gustave Roussy, priority 1999, dated 2005)

Columns and labels:
[1] = system: autologous EBV-transformed B cells; experiment: Target sensitization assay: 51Cr release lysis by CTL clone 3B8 of peptide-incubated autologous EBV-transformed B cells; format: cell-based, human; settings: EBV-transformed B cells incubated with peptide, CTL clone 3B8 effector 30:1, chromium release after 4 h; read-out: Peptide concentration giving semi-maximal lysis
Method: 2000 EBV-transformed cells were incubated and labeled with 51Cr for 1 h in the presence of the HLA-B7-restricted iCE peptide (SPRWWPTCL; SEQ ID NO:2) or another control HLA-B7-restricted peptide (VISTVVANL; SEQ ID NO:9). Clone 3B8 was then added as an effector, in a ratio set at 30:1. Chromium release was measured after 4 h.
The cytolytic activity of the CTLs was determined in a standard ^51Cr release assay as previously described (22). Target cells (RCC and K562 cell lines) were labeled for 1 h with 50 μCi to 100 μCi of ^51Cr (Du Pont, NEN, Boston, Mass.) at 37° C., and 2×10^3 cells were seeded in 96-microwell plates in 100 μl of RPMI supplemented with 5% of FCS. […] The 96-microwell plates were incubated at 37° C. for 4 h, and ^51Cr release was determined in the harvested supernatants. […]
In order to reduce the nucleotide sequence encoding the antigen, several truncated cDNAs were obtained by PCR amplification. […] After examining the corresponding amino acid sequence, all possible nonamers and decamers were synthesized, and their ability to make autologous EBV-transformed B cells sensitive to lysis by 3B8 was evaluated.
Finally, an alternative ORF was found (a+1 translational open reading frame leading to a 453-nt ORF) with three ATGs in nt positions 476, 479 and 803, which encodes a nonamer (SPRWWPTCL) (SEQ ID NO: 2) in the minimum region of nt 763-855. […]

HLA-B*0702 = target: T1, HLA-B*0702 (Homo sapiens, UniProt P01889); experiment: Binding and stability of peptide on T2 cells transfected with HLA-B*0702 (HLA-B7 expression by flow cytometry)
T1 construct: expressed in transfected cells; host or cells: T2 cells
Method: T2 cells were incubated at 26° C. for 16 hours in medium without serum containing peptides at a concentration of 50 μM. Then, the peptides were again added, and the cells were incubated at 37° C. At 30-min or 1-h intervals, aliquots of cells were harvested, and the change in HLA-B7 expression was monitored by flow cytometry using an anti-HLA-B7 mAB (HB59). By way of control, an HLA-A2-restricted HSP70 peptide was used. The peptide SPRWWPTCL is provided in SEQ ID NO: 2.
HLA-A2-binding peptide antigens upregulate the expression of HLA-A2 molecules on T2 cells (37). Similarly, T2 cells transfected with HLA-B*0702 (38) were used to analyze the binding capacity and the stability of the iCE peptide (FIG. 6). At […], the binding of the iCE peptide is stable over time for at least 4 h, unlike the control, which is the HLA-A2-restricted HSP70 peptide (14).

SPRWWPTCL [nonamer encoded by the +1 alternative ORF of the iCE gene, with HLA-B7-anchoring residues at positions 2, 3 and 9]
EC50 [1]: < 1000 nM
Stability of binding to T2 cells transfected with HLA-B*0702 (in words) (HLA-B*0702; T2 cells transfected with HLA-B*0702): stable with time
Time over which binding to HLA-B7 is stable (HLA-B*0702; T2 cells transfected with HLA-B*0702, peptide at 50 mM (so in the source), 37° C.): at least 4 h
Binding to HLA-B*0702-presenting molecules (in words) (HLA-B*0702; binding assay by immunofluorescence using transfected T2 cells): binds
